Laboratory results taken from article PMC11905336, “Pyrrole‐Tethered Bisbenzoxazole Derivatives: Apoptosis‐Inducing Agents Targeting Breast Cancer Cells” (Chemical Biology & Drug Design, 2025).
Read-outs that look alike come from different tables or passages of the source.

Legend:
[1] = system: HDFa cell lines; test: Cytotoxicity on healthy dermal fibroblasts (MTT / xCELLigence real-time cell analysis); format: cell-based; details: Homo sapiens
Method: The cytotoxicity of these derivatives was also assessed in dermal fibroblast cells using xCELLigence analysis as detailed in the Supporting Information.
(§1) The human dermal fibroblast (HDFa) and human breast cancer cells (MCF‐7) were obtained from the American Type Culture Collection (ATCC; Manassas, VA, USA). Cells were cultured in RPMI medium (MCF‐7) and DMEM medium (HDFa) was supplemented with 10% FBS, 1% penicillin–streptomycin, 1% amphotericin, and 2.5% L‐glutamine at 37°C in a 5% CO2 incubator.
xCELLigence Real‐Time Cell Analysis. The xCELLigence system (Real‐Time Cell Analyzer (RTCA) Dual Plate (DP) (Roche Diagnostics GmbH, Penzberg)) was used for real‐time monitoring of cell viability without the need for labeling. A total of 1 × 10^4 HDFa cells were seeded into each well of the E‐plate, and the cell proliferation curve was monitored for 24 h. […] The Cell Index (CI) value was automatically measured every hour for each well using RTCA Software (version 1.2.1) (Yetkin et al. [2021]; Yıldırım et al. [2022]).

[2] = system: MCF‐7 cell lines; test: MTT assay, cytotoxicity on MCF-7 cells; format: cell-based, human; details: for IC50: Homo sapiens, MTT
Method: The cytotoxic effects of PTB derivatives on MCF‐7 breast cancer cells were evaluated using the MTT assay at various concentrations (100 nM, 1 μM, 10 μM, 50 μM, and 100 μM).
as §1
MTT Method. The MTT method is used to detect and quantify living organisms cultured with the method colorimetrically. This method relies on intact mitochondria cleaving the tetrazolium ring of the MTT dye. The MTT substance is absorbed and reduced to a colorful, water‐insoluble formazan by a mitochondria‐dependent reaction. Cell viability is measured based on the MTT reduction property, and the density of dye obtained from MTT analysis indicates the number of viable cells. In this study, cell viability was assessed using the MTT (0.5 mg/mL) solution that was added to each well. […] After adding properties to cultures, they were kept at 37°C for 24 h and overnight. Then, at 48 and 72 h after applying the molecules, 10 μL of MTT was added to each well and incubated under similar conditions for 4 h. Absorbance spectrophotometry was performed at a wavelength of 570 nm using the IC50 = [(control absorbents‐sample absorbents)/control absorbents] × 100 calculation method (Khorsandi et al. [2017]).

[3] = system: MCF‐7 cells; test: Apoptosis/necrosis by flow cytometry, Annexin V/propidium iodide, MCF-7; format: cell-based, human; details: MCF-7, 48 h, p < 0.05
Method: Flow cytometry analysis was performed to evaluate the percentages of apoptosis for these compounds compared to tamoxifen. MCF‐7 cell suspensions treated with each compound for 48 h were stained using an apoptosis detection kit and subsequently analyzed using flow cytometry.
The assessment of apoptosis through flow cytometry is a valuable method for obtaining quantitative results to determine the levels of apoptosis and necrosis in cells. In our study, the 48th‐hour apoptosis levels of three synthases with the lowest IC50 values (PTB derivatives B8, B14, and B18) were evaluated. To assess apoptosis levels, MCF‐7 cells and healthy fibroblast cells were incubated with these synthases for 48 h. After this incubation period, the cells were treated with Annexin‐V APC and PE propidium iodide (PI) dyes to examine apoptosis levels. Then, to examine the levels of apoptosis, the cells were incubated at a concentration of 2 × 10^5 cells/mL with 5 μL Annexin‐V APC and 10 μL PI dyes in 100 μL Binding buffer for 15 min at room temperature. Samples were then washed twice in PBS, and the BD FACS ARIA III flow cytometry device was used to determine the percentage of apoptotic cells. (Ayaz et al. [2022]).

[4] = 24 h, values greater than 100 not calculated, read-out: IC50 (μM) for HDFa cell lines, 24 h
[5] = 72 h, values greater than 100 not calculated, read-out: IC50 (μM) for HDFa cell lines, 72 h
[6] = read-out: IC50 (μM) for HDFa cell lines, 48 h, values greater than 100 not calculated
[7] = MCF7, read-out: IC50 (μM) for MCF‐7 cell lines, 48 h
[8] = MCF7, 24 h, read-out: IC50 (μM) for MCF‐7 cell lines, 24 h
[9] = MCF7, 72 h, read-out: IC50 (μM) for MCF‐7 cell lines, 72 h

| Structure (SMILES) | IC50 [1, 4] [µM] | IC50 [1, 5] [µM] | IC50 [1, 6] [µM] | IC50 [2, 7] [µM] | IC50 [2, 8] [µM] | IC50 [2, 9] [µM] | Secondary apoptosis vs control [3] | IC50 in MCF-7 compared to tamoxifen (fold lower) ([2]; MCF-7, MTT) |
| --- | --- | --- | --- | --- | --- | --- | --- | --- |
| COC(=O)c1ccc2nc(-c3ccc(-c4nc5ccccc5o4)[nH]3)oc2c1 [Compound B10, Methyl 2‐(5‐(Benzo[d]Oxazol‐2‐Yl)‐1H‐Pyrrol‐2‐Yl)benzo[d]Oxazole‐6‐Carboxylate] | 97.2 ± 1.76 | 99.9 ± 1.65 | 99.3 ± 1.34 | 2.88 ± 0.45 | 3.66 ± 1.34 | 2.44 ± 2.11 | – | – |
| Cc1ccc2nc(-c3ccc(-c4nc5ccc(C)cc5o4)[nH]3)oc2c1 [Compound B3, 2,5‐Bis(6‐Methylbenzo[d]Oxazol‐2‐Yl)‐1H‐Pyrrole] | ≥ 100 | ≥ 100 | ≥ 100 | 4.38 ± 0.98 | 3.3 ± 1.96 | 3.53 ± 0.65 | – | – |
| COc1ccc2oc(-c3ccc(-c4nc5ccc(C)cc5o4)[nH]3)nc2c1 [Compound B15, 5‐Methoxy‐2‐(5‐(6‐Methylbenzo[d]Oxazol‐2‐Yl)‐1H‐Pyrrol‐2‐Yl)benzo[d]Oxazole] | ≥ 100 | ≥ 100 | ≥ 100 | 8.09 ± 2.06 | 2.49 ± 1.64 | 2.53 ± 1.56 | – | – |
| c1ccc2oc(-c3ccc(-c4nc5ccccc5o4)[nH]3)nc2c1 [Compound B1, 2,5‐Bis(Benzo[d]Oxazol‐2‐Yl)‐1H‐Pyrrole] | 89.4 ± 1.23 | ≥ 100 | 89.93 ± 0.43 | 2.96 ± 1.02 | 3.89 ± 1.15 | 3.13 ± 1.12 | – | – |
| Cc1ccc2oc(-c3ccc(-c4nc5ccc(C)cc5o4)[nH]3)nc2c1 [Compound B11, 6‐Methyl‐2‐(5‐(5‐Methylbenzo[d]Oxazol‐2‐Yl)‐1H‐Pyrrol‐2‐Yl)benzo[d]Oxazole] | 95.3 ± 1.65 | 99.4 ± 1.23 | 97.4 ± 1.47 | 3.49 ± 0.68 | 4.55 ± 0.09 | 2.44 ± 1.19 | – | – |
| COc1ccc2oc(-c3ccc(-c4nc5ccccc5o4)[nH]3)nc2c1 [Compound B8, 2‐(5‐(Benzo[d]Oxazol‐2‐Yl)‐1H‐Pyrrol‐2‐Yl)‐5‐Methoxybenzo[d]Oxazole] | ≥ 100 | ≥ 100 | ≥ 100 | 1.89 ± 0.12 | 4.4 ± 0.79 | 3.09 ± 0.21 | significantly elevated | approximately 8 fold |
| Cc1ccc2oc(-c3ccc(-c4nc5cc(C)ccc5o4)[nH]3)nc2c1 [Compound B2, 2,5‐Bis(5‐Methylbenzo[d]Oxazol‐2‐Yl)‐1H‐Pyrrole] | 96.3 ± 1.03 | 99.3 ± 1.03 | 94.3 ± 1.56 | 4.5 ± 0.23 | 4.6 ± 2.2 | 2.06 ± 1.67 | – | – |
| COC(=O)c1ccc2nc(-c3ccc(-c4nc5cc(Cl)ccc5o4)[nH]3)oc2c1 [Compound B20, Methyl 2‐(5‐(5‐Chlorobenzo[d]Oxazol‐2‐Yl)‐1H‐Pyrrol‐2‐Yl)benzo[d]Oxazole‐6‐Carboxylate] | 95.4 ± 1.94 | ≥ 100 | 97.3 ± 1.43 | 3.25 ± 0.97 | 2.97 ± 1.13 | 3.07 ± 2.96 | – | – |
| COC(=O)c1ccc2nc(-c3ccc(-c4nc5ccc(C)cc5o4)[nH]3)oc2c1 [Compound B16, Methyl 2‐(5‐(6‐Methylbenzo[d]Oxazol‐2‐Yl)‐1H‐Pyrrol‐2‐Yl)benzo[d]Oxazole‐6‐Carboxylate] | 95.3 ± 1.03 | 99.3 ± 1.07 | 97.3 ± 1.09 | 2.82 ± 2.14 | 3.03 ± 1.35 | 2.93 ± 1.02 | – | – |
| Cc1ccc2nc(-c3ccc(-c4nc5ccccc5o4)[nH]3)oc2c1 [Compound B7, 2‐(5‐(Benzo[d]Oxazol‐2‐Yl)‐1H‐Pyrrol‐2‐Yl)‐6‐Methylbenzo[d]Oxazole] | 97.3 ± 1.06 | 100 ± 1.03 | 98.5 ± 2 | 4.68 ± 0.98 | 4.08 ± 1.23 | 2.53 ± 1.82 | – | – |
| Cc1ccc2oc(-c3ccc(-c4nc5ccccc5o4)[nH]3)nc2c1 [Compound B6, 2‐(5‐(Benzo[d]Oxazol‐2‐Yl)‐1H‐Pyrrol‐2‐Yl)‐5‐Methylbenzo[d]Oxazole] | 98.5 ± 1.02 | 99.1 ± 1.73 | 99 ± 1.76 | 3.09 ± 1.23 | 2.81 ± 0.76 | 3.02 ± 0.89 | – | – |
| COc1ccc2oc(-c3ccc(-c4nc5cc(Cl)ccc5o4)[nH]3)nc2c1 [Compound B17, 5‐Chloro‐2‐(5‐(5‐Methoxybenzo[d]Oxazol‐2‐Yl)‐1H‐Pyrrol‐2‐Yl)benzo[d]Oxazole] | 98.3 ± 1.57 | 99 ± 1 | 99 ± 1.96 | 3.44 ± 1.12 | 3.7 ± 1.12 | 3.03 ± 0.76 | – | – |
| Cc1ccc2nc(-c3ccc(-c4nc5cc(Cl)ccc5o4)[nH]3)oc2c1 [Compound B19, 5‐Chloro‐2‐(5‐(6‐Methylbenzo[d]Oxazol‐2‐Yl)‐1H‐Pyrrol‐2‐Yl)benzo[d]Oxazole] | 97.3 ± 1.34 | 99.82 ± 0.89 | 97.3 ± 1.2 | 2.97 ± 1.12 | 2.83 ± 0.87 | 3.42 ± 1.12 | – | – |
| Clc1ccc2oc(-c3ccc(-c4nc5cc(Cl)ccc5o4)[nH]3)nc2c1 [Compound B5, 2,5‐Bis(5‐Chlorobenzo[d]Oxazol‐2‐Yl)‐1H‐Pyrrole] | 95.3 ± 1.92 | ≥ 100 | 97.5 ± 2.93 | 2.69 ± 2.01 | 3.73 ± 1.05 | 3.28 ± 1.32 | – | – |
| COc1ccc2oc(-c3ccc(-c4nc5cc(OC)ccc5o4)[nH]3)nc2c1 [Compound B4, 2,5‐Bis(5‐Methoxybenzo[d]Oxazol‐2‐Yl)‐1H‐Pyrrole] | 97.3 ± 1.34 | ≥ 100 | 99.23 ± 0.32 | 4.19 ± 1.86 | 4.56 ± 1.56 | 3.11 ± 0.56 | – | – |
| Cc1ccc2oc(-c3ccc(-c4nc5cc(Cl)ccc5o4)[nH]3)nc2c1 [Compound B13, 5‐Chloro‐2‐(5‐(5‐Methylbenzo[d]Oxazol‐2‐Yl)‐1H‐Pyrrol‐2‐Yl)benzo[d]Oxazole] | ≥ 100 | ≥ 100 | ≥ 100 | 3.6 ± 0.56 | 3.43 ± 1.56 | 3.28 ± 1.36 | – | – |
| Clc1ccc2oc(-c3ccc(-c4nc5ccccc5o4)[nH]3)nc2c1 [Compound B9, 2‐(5‐(Benzo[d]Oxazol‐2‐Yl)‐1H‐Pyrrol‐2‐Yl)‐5‐Chlorobenzo[d]Oxazole] | 95.4 ± 1.29 | 101 ± 1.38 | 97.5 ± 1.99 | 3.23 ± 0.63 | 3.84 ± 1.12 | 2.77 ± 1.23 | – | – |
| COc1ccc2oc(-c3ccc(-c4nc5cc(C)ccc5o4)[nH]3)nc2c1 [Compound B12, 5‐Methoxy‐2‐(5‐(5‐Methylbenzo[d]Oxazol‐2‐Yl)‐1H‐Pyrrol‐2‐Yl)benzo[d]Oxazole] | ≥ 100 | ≥ 100 | ≥ 100 | 3.49 ± 0.46 | 3.88 ± 0.23 | 3.11 ± 0.87 | – | – |
